Literature values in patent US9987239B1, “Pharmaceutical retinoid preparation for topical use” (Rey Ventures, LLC, priority 2017, dated 2018).

solubility of adapalene in ethyl alcohol (ethyl alcohol): 1000 µg/mL
solubility of adapalene (water) (water): 0.004 µg/mL
Compound: COc1ccc(-c2ccc3cc(C(=O)O)ccc3c2)cc1C12CC3CC(CC(C3)C1)C2 [adapalene, 6-[3-(1-adamantyl)-4-methoxyphenyl] naphthalene-2-carboxylic]
